These results are taken from US20230000774A1, “METHODS AND COMPOSITIONS PRODUCED THEREBY” (Albumedix Limited, priority 2019, published 2023).

The nature of one series: physchem. Particulars: organic solvent or mixture, thermodynamic from solid. As for the experimental part: The solubility of nine poorly soluble APIs in ethanol was investigated; Acyclovir, Aripiprazole, Bifonazole, Etravirine, Ezetimibe, Glibenclamide. […] For each API, approximately 20 mg was weighed into a scintillation vial. 3 mL of ethanol was added to each vial. Samples were vortexed until completely dissolved. If after 2 mins the sample was not dissolved, a further 3 mL of ethanol was added, and the sample was vortexed again. After another 2 mins, if the sample was still not dissolved, the API in question was classed as insoluble.
To quickly assess the APIs applicability to this method, the solubility of each API in ethanol was tested.

The nature of series [1]: Solubility of APIs in ethanol water mixtures. The format is physicochemical. The conditions noted are these: ethanolic solution added to 50:50 EtOH:H2O. As for the experimental part: APIs were dissolved in ethanol at the desired concentration (Tables 16 and 17). The required volume of this solution was added to a 50:50 solution of ethanol:HPLC grade water with stirring (Table 17).
To prepare the spray drying feed solution the API should preferably be soluble in 40:60 (v/v) ethanol/water mixtures. Any API that precipitated on addition of the ethanolic solution (from the previous section) to a 50:50 solution of EtOH:H2O was eliminated from the study.

A short description of a further series: DMSO solubility testing. In kind it is physicochemical. As to the method:
1 mL of DMSO was added to a scintillation vial containing approximately 20 mg of Ezetimibe. The sample readily dissolved with gentle mixing.
A solution preparation method that utilised an alternative solvent was investigated. The alternative solvent needed to be similar to ethanol in its ability to dissolve the APIs whilst being miscible with water. Dimethyl sulfoxide (DMSO) was chosen as a promising candidate. Ezetimibe was chosen as a suitable API owing to its favourable COSHH assessment combined with the knowledge of DMSO as a transport agent. The solubility of Ezetimibe in DSMO was assessed by dissolving approx. 20 mg of API in 1 mL of solvent. […] The next step was to assess the API solubility in a mixture of DMSO and water.

Series [2] is described as follows: Solubility of APIs in D5W solution. In kind it is physicochemical. Particulars: saline or isotonic, thermodynamic from solid. As to the method:
The solution was sampled after centrifugation (13.5 k rpm for 5 minutes) and the solubility of the APIs was determined by HPLC analysis of the saturated solution.
Analysis was performed on an Agilent 1200 series HPLC employing a Waters, Xbridge Peptide BEH C18 column (150×4.6 mm i.d., 3.5 μm). […] Bifonazole was analysed using a 1 mL/min flow rate of 65:35 HPLC methanol:ammonium acetate (5 g/L, pH 2) with UV detection at 252 nm.

The conditions of series [3]: cited from earlier work; for Water Solubility: obtained from DrugBank, rimiducid value provided by Bellicum Pharmaceuticals (estimated); for Solubility in water (literature): unformulated API.
For series [4] the following is noted: obtained from DrugBank; total charge at pH 7.4; cited from earlier work.
A short description of series [5]: Dissolution of curcumin in water and after spray drying with rHA. The format is physicochemical. Particulars: unformulated.
A short description of series [6]: Drug solubility testing of AP1903 in ethanol and methanol. The format is physicochemical. As for the experimental part: Drug solubility testing was undertaken to ascertain the highest concentration of drug solution that could be used for the preparation of the feed solution. […] Both were tested and found to perform similarly, with ˜40 mg of AP1903 dissolving into 1 mLl of solvent.

The mark [7] stands for this setting: D5W solution, unformulated API, saturated solution, read-out: Solubility in D5W solution.

In brackets after ≈: the same amount, converted by molar mass. Read-outs that look alike come from different tables or passages of the source.

For `O=C1[C@H](CC[C@H](O)c2ccc(F)cc2)[C@@H](c2ccc(O)cc2)N1c1ccc(F)cc1` [Ezetimibe], the solubility in the series “physchem” (Soluble (>[…]) in EtOH?) was over 1200 µg/mL. The “Soluble in EtOH/H2O mixture” value in series [1] is reported as “Yes”. For the same compound, the “solubility in a mixture of DMSO and water” value in “DMSO solubility testing” (addition to a 50:50 DMSO:water mixture) is “remained in solution”. In addition, the “solubility in DMSO” value in the series “DMSO solubility testing” (approx. 20 mg of API in 1 mL of DMSO) was “dissolved readily with gentle agitation”. Further, in series [2] (setting [7]), the solubility at 2 min worked out at 3.4 µg/mL (≈ 8.3 µM). Also, in series [3], the “Water Solubility” value was 8.46 µg/mL and the “Solubility in water (literature)” value was 8.5 µg/mL (≈ 20.8 µM). The “Physiological Charge” value in series [4] is reported as 0.
Regarding `C#C[C@]1(O)CC[C@H]2[C@@H]3CCC4=Cc5oncc5C[C@]4(C)[C@H]3CC[C@@]21C` [Danazol], the “Physiological Charge” value in series [4] is listed as 0.
Turning to `Cc1cc(C#N)cc(C)c1Oc1nc(Nc2ccc(C#N)cc2)nc(N)c1Br` [Etravirine], the solubility in “physchem” (Soluble (>[…]) in EtOH?) is under 1200 µg/mL. Moreover, the “Water Solubility” value in series [3] was 16.9 µg/mL. For the same compound, the “Physiological Charge” value in series [4] was 0.
In the case of `C=CC[C@@H]1/C=C(\C)C[C@H](C)C[C@H](OC)[C@H]2O[C@@](O)(C(=O)C(=O)N3CCCC[C@H]3C(=O)O[C@H](/C(C)=C/[C@@H]3CC[C@@H](O)[C@H](OC)C3)[C@H](C)[C@@H](O)CC1=O)[C@H](C)C[C@@H]2OC` [Tacrolimus], the “Water Solubility” value in series [3] was 4.02 µg/mL. Besides, in series [4], the “Physiological Charge” value is 0.
For `CC(C)c1nc(CN(C)C(=O)N[C@H](C(=O)N[C@@H](Cc2ccccc2)C[C@H](O)[C@H](Cc2ccccc2)NC(=O)OCc2cncs2)C(C)C)cs1` [Ritonavir], in series [4], the “Physiological Charge” value is 0.
As for `c1ccc(-c2ccc(C(c3ccccc3)n3ccnc3)cc2)cc1` (stereo not drawn) [Bifonazole], the solubility in “physchem” (Soluble (>[…]) in EtOH?) is over 1200 µg/mL. Further, in series [1], the “Soluble in EtOH/H2O mixture” value was “Yes”. This compound also came in with a solubility at 2 min in series [2] of 3.5 µg/mL (≈ 11.3 µM). Further, in series [3], the “Water Solubility” value was 2.45 µg/mL and the “Solubility in water (literature)” value was 2.5 µg/mL (≈ 8.05 µM). The “Physiological Charge” value in series [4] is reported as 0.
With `O=C1NC(=O)C(c2ccccc2)(c2ccccc2)N1` [Phenytoin], the solubility in the series “physchem” (Soluble (>[…]) in EtOH?) was over 1200 µg/mL. Besides, the “Soluble in EtOH/H2O mixture” value in series [1] is on record as “Yes”. In series [2] (setting [7]), the solubility at 2 min is 14.1 µg/mL (≈ 55.9 µM). Also, in series [3], the “Water Solubility” value was 71.1 µg/mL and the “Solubility in water (literature)” value was 71.1 µg/mL (≈ 282 µM). In addition, the “Physiological Charge” value in series [4] is recorded as 0.
`CO[C@H]1C[C@@H]2CC[C@@H](C)[C@@](O)(O2)C(=O)C(=O)N2CCCC[C@H]2C(=O)O[C@H]([C@H](C)C[C@@H]2CC[C@@H](O)[C@H](OC)C2)CC(=O)[C@H](C)/C=C(\C)[C@@H](O)[C@@H](OC)C(=O)[C@H](C)C[C@H](C)/C=C/C=C/C=C/1C` [Rapamycin (sirolimus), Rapamycin]: in series [3], the “Water Solubility” value was 1.73 µg/mL.
In the case of `COc1cc(/C=C/C(=O)CC(=O)/C=C/c2ccc(O)c(OC)c2)ccc1O` [Curcumin], the Water Solubility entry in series [5] is “poorly water soluble”.
As to `CC[C@H](C(=O)N1CCCC[C@H]1C(=O)O[C@H](CCc1ccc(OC)c(OC)c1)c1cccc(OCC(=O)NCCNC(=O)COc2cccc([C@@H](CCc3ccc(OC)c(OC)c3)OC(=O)[C@@H]3CCCCN3C(=O)[C@@H](CC)c3cc(OC)c(OC)c(OC)c3)c2)c1)c1cc(OC)c(OC)c(OC)c1` [AP1903, 1,2-Ethanediylbis[imino(2-oxo-2,1-ethanediyl)oxy-3,1-phenylene(1R)-3-(3,4-dimethoxyphen-yl)-1,1-propanediyl] (2S,2'S)bis{1-[(2S)-2-(3,4,5-trimethoxyphenyl)butanoyl]-2-piperidine-carboxylate}], the “amount of AP1903 dissolving in ethanol” value in series [6] (dissolving into 1 mL of ethanol) was about 40 mg. Moreover, the “amount of AP1903 dissolving in methanol” value in series [6] (dissolving into 1 mL of methanol) is given as about 40 mg. Besides, the “Water Solubility” value is “approximately 0.000001 mg/mL” in series [3] and 0.001 µg/mL in series [3] (listed as Rimiducid (AP1903)). The “water solubility (estimated)” value in series [3] (provided by Bellicum Pharmaceuticals) was 0.7 nM (≈ 0.988 ng/mL). In addition, the “Physiological Charge” value in series [4] is recorded as 0.
For the compound `Cc1cccc(C)c1OCC(=O)N[C@@H](Cc1ccccc1)[C@@H](O)C[C@H](Cc1ccccc1)NC(=O)[C@H](C(C)C)N1CCCNC1=O` [Lopinavir], the solubility in “physchem” (Soluble (>[…]) in EtOH?) was over 1200 µg/mL. Besides, the “Soluble in EtOH/H2O mixture” value in series [1] is listed as “Yes”. Also, the concentration in solution in series [2] (solubility at 2 min) was 14.9 µg/mL (≈ 23.7 µM). In series [3], the “Water Solubility” value was 1.92 µg/mL and the “Solubility in water (literature)” value was 1.9 µg/mL (≈ 3.02 µM).
On to `COc1ccc(Cl)cc1C(=O)NCCc1ccc(S(=O)(=O)NC(=O)NC2CCCCC2)cc1` [Glibenclamide], for which the solubility in “physchem” (Soluble (>[…]) in EtOH?) is under 1200 µg/mL.
`O=C1CCc2ccc(OCCCCN3CCN(c4cccc(Cl)c4Cl)CC3)cc2N1` [Aripiprazole]: the solubility is over 1200 µg/mL in the series “physchem” (Soluble (>[…]) in EtOH?) and about 2200 µg/mL (≈ 4910 µM) in “physchem” (approximate concentration in ethanol at which completely solubilised). Besides, the “Soluble in EtOH/H2O mixture” value in series [1] is given as “No”.
With `Nc1nc2c(ncn2COCCO)c(=O)[nH]1` [Acyclovir], in the series “physchem” (Soluble (>[…]) in EtOH?), the solubility is under 1200 µg/mL.
